Measured values published in patent US8609731B2, “Substituted tetrahydronaphthalenes, process for the preparation thereof and the use thereof as medicaments” (SANOFI, priority 2007, dated 2013).

Molecular target: T1, human MCH receptor (Homo sapiens, UniProt Q99705)
T1 construct: expressed in transfected cells
Experiment: calcium mobilization assay (FLIPR); functional IC50 of MCH1R antagonists
Format: cell-based
Details: recombinant HEK293 cell line expressing human MCH receptor; calcium flux after addition of agonist MCH
Text: Influence on the MCH Receptor In Vitro; Determination of Functional IC50 Values of MCH1R Antagonists
Cloning of the cDNA for the human MCH receptor, preparation of a recombinant HEK293 cell line which expresses the human MCH receptor, and functional measurements with the recombinant cell line took place in analogy to the description by Audinot et al. (J. Biol. Chem. 2001, 276, 13554-13562). A difference from the reference was, however, the use of the plasmid pEAK8 from EDGE Biosystems (USA) for the construction of the expression vector. The host used for the transfection was a transformed HEK cell line named “PEAK Stable Cells” (likewise from EDGE Biosystems). Functional measurements of the cellular calcium flux after addition of agonist (MCH) in the presence of ligand of the invention took place with the aid of the FLIPR apparatus from Molecular Devices (USA), using protocols of the apparatus manufacturer. The compounds of the invention show a significant inhibition (>30%) of the signal induced by the agonist at a concentration of 100 μM, preferably at 10 μM, particularly preferably at 1 μM, very particularly preferably at 100 nM and very very particularly preferably at 10 nM.

T1 sequence (Q99705 whole entry): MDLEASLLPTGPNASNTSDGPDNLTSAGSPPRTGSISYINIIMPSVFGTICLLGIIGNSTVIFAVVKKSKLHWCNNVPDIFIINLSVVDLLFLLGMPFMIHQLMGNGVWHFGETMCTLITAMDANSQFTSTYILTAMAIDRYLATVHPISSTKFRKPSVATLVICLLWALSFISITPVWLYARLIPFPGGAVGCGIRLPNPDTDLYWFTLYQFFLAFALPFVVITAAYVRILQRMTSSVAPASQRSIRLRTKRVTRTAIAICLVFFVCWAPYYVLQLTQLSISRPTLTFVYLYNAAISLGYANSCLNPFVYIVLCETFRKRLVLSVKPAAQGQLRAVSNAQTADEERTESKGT

For `CN(C(=O)c1ccc(OC[C@@H]2CCCO2)cc1)[C@H]1CCc2cc(CN3CCCC3)ccc2C1` [Example 2, N-Methyl-N-((S)-6-pyrrolidin-1-ylmethyl-1,2,3,4-tetrahydronaphthalen-2-yl)-4-[(S)-1-(tetrahydrofuran-2-yl)methoxy]benzamide], which IC50 is on record?
The IC50 was 670 nM.

For `O=C(N[C@@H]1CCc2cc(CN3CCCC3)ccc2C1)c1ccc(OC[C@@H]2CCCO2)cc1` [Example 3-2], which IC50 is on record?
Its IC50 is 3290 nM.

For `O=C(N[C@H]1CCc2cc(CN3CC4CCCC4C3)ccc2C1)c1ccc(OC[C@@H]2CCCO2)cc1` (some centres unmarked) [Example 3-14], which IC50 is on record?
Its IC50 is 100 nM.

With `COC(=O)CNCc1ccc2c(c1)CC[C@H](NC(=O)c1ccc(OC[C@@H]3CCCO3)cc1)C2` [Example 3-26] as the compound, how does the IC50 read?
Its IC50 is 360 nM.

For `O=C(N[C@H]1CCc2cc(CNCCCn3ccnc3)ccc2C1)c1ccc(OC[C@@H]2CCCO2)cc1` [Example 3-32], which IC50 is on record?
Its IC50 is 130 nM.

Which IC50 does the source give for `O=C(N[C@H]1CCc2cc(CNCCCN3CCCC3=O)ccc2C1)c1ccc(OC[C@@H]2CCCO2)cc1` [Example 3-33] here?
The IC50 was 270 nM.

For `CN1CCN(Cc2ccc3c(c2)CC[C@H](NC(=O)c2ccc(OC[C@@H]4CCCO4)cc2)C3)CC1` [Example 3-37], which IC50 is on record?
Its IC50 is 340 nM.

For `O=C(N[C@H]1CCc2cc(CN3CCC(O)CC3)ccc2C1)c1ccc(OC[C@@H]2CCCO2)cc1` [Example 3-40], which IC50 is on record?
Its IC50 is 180 nM.

With `CC(=O)N1CCN(Cc2ccc3c(c2)CC[C@H](NC(=O)c2ccc(OC[C@@H]4CCCO4)cc2)C3)CC1` [Example 3-44] as the compound, how does the IC50 read?
The IC50 was 310 nM.

With `O=C(N[C@H]1CCc2cc(CN3C[C@H]4CC[C@H](CC4)C3)ccc2C1)c1ccc(OC[C@@H]2CCCO2)cc1` [Example 3-48] as the compound, how does the IC50 read?
Its IC50 is 210 nM.

For `Cc1ccc(CNCc2ccc3c(c2)CC[C@H](NC(=O)c2ccc(OC[C@@H]4CCCO4)cc2)C3)o1` [Example 3-51], which IC50 is on record?
The IC50 was 190 nM.

Which IC50 does the source give for `O=C(N[C@H]1CCc2cc(CNCC3OCCO3)ccc2C1)c1ccc(OC[C@@H]2CCCO2)cc1` [Example 3-61] here?
Its IC50 is 300 nM.

With `CS(=O)(=O)CCNCc1ccc2c(c1)CC[C@H](NC(=O)c1ccc(OC[C@@H]3CCCO3)cc1)C2` [Example 3-64] as the compound, how does the IC50 read?
The IC50 was 180 nM.

With `Cc1cc(CNCc2ccc3c(c2)CC[C@H](NC(=O)c2ccc(OC[C@@H]4CCCO4)cc2)C3)no1` [Example 3-71] as the compound, how does the IC50 read?
Its IC50 is 750 nM.

With `O=C1CN(Cc2ccc3c(c2)CC[C@H](NC(=O)c2ccc(OC[C@@H]4CCCO4)cc2)C3)CCN1` [Example 3-72] as the compound, how does the IC50 read?
The IC50 was 1850 nM.

Which IC50 does the source give for `O=C(N[C@H]1CCc2cc(CN3CCCOCC3)ccc2C1)c1ccc(OC[C@@H]2CCCO2)cc1` [Example 3-77] here?
The IC50 was 120 nM.

For `N#CC1CCN(Cc2ccc3c(c2)CC[C@H](NC(=O)c2ccc(OC[C@@H]4CCCO4)cc2)C3)CC1` [Example 3-84], which IC50 is on record?
Its IC50 is 170 nM.

With `O=C(N[C@H]1CCc2cc(CN3CC[C@@H](F)C3)ccc2C1)c1ccc(OC[C@@H]2CCCO2)cc1` [Example 3-86] as the compound, how does the IC50 read?
Its IC50 is 120 nM.

Which IC50 does the source give for `O=C(N[C@H]1CCc2cc(CN3C[C@@H]4C[C@H]3CO4)ccc2C1)c1ccc(OC[C@@H]2CCCO2)cc1` [Example 3-100] here?
Its IC50 is 330 nM.

With `COc1ccc(CNCc2ccc3c(c2)CC[C@H](NC(=O)c2ccc(OC[C@@H]4CCCO4)cc2)C3)cn1` [Example 3-103] as the compound, how does the IC50 read?
The IC50 was 200 nM.

For `O=C(N[C@H]1CCc2cc(CN3CCn4cnnc4C3)ccc2C1)c1ccc(OC[C@@H]2CCCO2)cc1` [Example 3-120], which IC50 is on record?
Its IC50 is 2410 nM.

For `CC(C)(C)CNCCc1ccc2c(c1)CC[C@H](NC(=O)c1ccc(OC[C@@H]3CCCO3)cc1)C2` [Example 3-135], which IC50 is on record?
The IC50 was 150 nM.

For `O=C(N[C@H]1CCc2cc(CN3CCC4(CCCC4)C3)ccc2C1)c1ccc(OC[C@@H]2CCCO2)cc1` [Example 3-194], which IC50 is on record?
Its IC50 is 90 nM.

Which IC50 does the source give for `CC1(CNCc2ccc3c(c2)CC[C@H](NC(=O)c2ccc(OC[C@@H]4CCCO4)cc2)C3)CCCC1` [Example 3-195] here?
The IC50 was 110 nM.

For `CC(C)(C)CNC(C)(C)c1ccc2c(c1)CC[C@H](NC(=O)c1ccc(OC[C@@H]3CCCO3)cc1)C2` [Example 8-1, N-{(S)-6-[1-(2,2-Dimethylpropylamino)-1-methylethyl]-1,2,3,4-tetrahydro-naphthalen-2-yl}-4-[(S)-1-(tetrahydrofuran-2-yl)methoxy]benzamide], which IC50 is on record?
Its IC50 is 240 nM.

With `CC(C)CN1CCCC(c2ccc3c(c2)CC[C@H](NC(=O)c2ccc(OC[C@@H]4CCCO4)cc2)C3)C1` (some centres unmarked) [Example 8-3] as the compound, how does the IC50 read?
The IC50 was 230 nM.

For `CN1CCCCC1c1ccc2c(c1)CC[C@H](NC(=O)c1ccc(OC[C@@H]3CCCO3)cc1)C2` (some centres unmarked) [Example 8-8], which IC50 is on record?
Its IC50 is 180 nM.

For `CC(C)CCN[C@H](C)c1ccc2c(c1)CC[C@H](NC(=O)c1ccc(OC[C@@H]3CCCO3)cc1)C2` [Example 8-16], which IC50 is on record?
Its IC50 is 120 nM.

Which IC50 does the source give for `O=C(N[C@H]1CCc2cc([C@@H]3CCCN(C4CCOCC4)C3)ccc2C1)c1ccc(OC[C@@H]2CCCO2)cc1` [Example 8-26] here?
The IC50 was 230 nM.

For `CC1(COc2ccc(C(=O)N[C@H]3CCc4cc(CN5CCCCCC5)ccc4C3)cc2)COC1` [Example 9-2], which IC50 is on record?
Its IC50 is 1280 nM.

Which IC50 does the source give for `O=C(N[C@H]1CCc2cc(CN3CCCCCC3)ccc2C1)c1ccc(OCC2OCCO2)cc1` [Example 9-3] here?
The IC50 was 170 nM.

With `O=C(N[C@H]1CCc2cc(CN3CCCCCC3)ccc2C1)c1ccc(OCC2CCOCC2)cc1` [Example 9-4] as the compound, how does the IC50 read?
Its IC50 is 440 nM.

For `O=C(N[C@H]1CCc2cc(CN3CCCCCC3)ccc2C1)c1ccc(OCC2CCCCO2)cc1` (some centres unmarked) [Example 9-5], which IC50 is on record?
Its IC50 is 310 nM.

For `CC1CCN([C@H](C)c2ccc3c(c2)CC[C@H](NC(=O)c2ccc(OC[C@@H]4CCCO4)cc2)C3)CC1` [Example 10, N-{(S)-6-[(R)-1-(4-Methylpiperidin-1-yl)ethyl]-1,2,3,4-tetrahydronaphthalen-2-yl}-4-[(S)-1-(tetrahydrofuran-2-yl)methoxy]benzamide], which IC50 is on record?
Its IC50 is 110 nM.

Which IC50 does the source give for `O=C(N[C@H]1CCc2cc(CN3CCCCCC3)ccc2C1)c1ccc(OC[C@@H]2CCCO2)c(F)c1` [Example 12, N-((S)-6-Azepan-1-ylmethyl-1,2,3,4-tetrahydronaphthalen-2-yl)-3-fluoro-4-[(S)-1-(tetrahydrofuran-2-yl)methoxy]benzamide] here?
The IC50 was 300 nM.

Which IC50 does the source give for `COC1CCN(Cc2ccc3c(c2)CC[C@H](n2ccc4cc(OC[C@@H]5CCCO5)ccc4c2=O)C3)CC1` [Example 13, 2-[(S)-6-(4-Methoxypiperidin-1-ylmethyl)-1,2,3,4-tetrahydronaphthalen-2-yl]-6-[(S)-1-(tetrahydrofuran-2-yl)methoxy]-2H-isoquinolin-1-one] here?
Its IC50 is 1400 nM.

Molecular target: T2, hERG channel (Homo sapiens, UniProt Q12809)
T2 construct: expressed in transfected cells; host or cells: CHO cells (ATCC), pcDNA3 vector, G418 selection
Experiment: hERG channel blockade, whole-cell patch clamp in CHO cells expressing hERG
Format: cell-based
Details: CHO cells with stable hERG expression, room temperature, read-out: hERG Inh. IC50
Text: The aim of the test is to determine the concentration range in which the test compound blocks the cardiac hERG channel. Blockade of the hERG channel, which is responsible for the Ikr current in the human heart, is associated with potentially fatal arrhythmias.
For expression of the cDNA encoding the hERG channel it was cloned into the pcDNA3 vector (Invitrogen). Chinese hamster […] (CHO, American Type Culture Collection, Rockville, Md.) were transfected using lipofectamine (GIBCO/BRL, Grand Island, N.Y.) with the hERG cDNA and selected using G418 (GIBCO/BRL, Grand Island, N.Y.; 500 μg/ml). CHO cells with stable expression of the hERG channel were cultured on a HAM F-12 medium which was supplemented with 10% native bovine serum, 1× penicillin/streptomycin and 500 μg/ml G418 in an atmosphere of 95% air/5% carbon dioxide.
The cells selected for the patch clamp experiment are seeded on a plastic support 18-24 hours before the experiment. HERG channel currents are recorded at room temperature by the whole-cell variant of the patch clamp technique using an Axopatch 200B amplifier (Axon Instruments, Foster City, Calif.). The electrodes (3-6 megaohms resistance) are prepared from TW150F glass capillaries (World Precision Instruments, Sarasota, Fla.) and filled with the pipette solution (120 mM potassium aspartate, 20 mM KCl, 4 mM Na2ATP, 5 mM HEPES, 1 mM MgCl2; adjusted to pH 7.2 with KOH). The hERG channel currents are induced by a positive voltage pulse (20 mV) followed by a negative pulse (−40 mV) and are recorded for later analysis. As soon as the hERG channel current of the cell flushed with the control solution ([…], 5 mM KCl, 2.8 mM NaOAc, 1 mM MgCl2, 10 mM HEPES; 10 mM glucose, 1 mM CaCl2; adjusted to pH 7.4 with NaOH) is stable, the cell is perfused with the test compound dissolved in the above control solution (by dilution of a 10 or 100 mM DMSO solution of the test compound so that the DMSO content is no more than 0.1%). The current is followed continuously until no further changes occur. The same procedure is repeated with increasing concentrations of the test compound. The maximum amplitude of the hERG current is measured in picoAmperes (pA) for each concentration and for each cell. The maximum amplitude in pA for each concentration of the test compound is compared with that of the pure control solution in the same cell and calculated as % of the control value.
Evaluation: The test compound is tested at various concentrations in 3-5 CHO cells which express the hERG channel. The IC50 is obtained by use of nonlinear least squares regression (GraphPAD Software, San Diego, Calif.).

T2 sequence (Q12809 whole entry): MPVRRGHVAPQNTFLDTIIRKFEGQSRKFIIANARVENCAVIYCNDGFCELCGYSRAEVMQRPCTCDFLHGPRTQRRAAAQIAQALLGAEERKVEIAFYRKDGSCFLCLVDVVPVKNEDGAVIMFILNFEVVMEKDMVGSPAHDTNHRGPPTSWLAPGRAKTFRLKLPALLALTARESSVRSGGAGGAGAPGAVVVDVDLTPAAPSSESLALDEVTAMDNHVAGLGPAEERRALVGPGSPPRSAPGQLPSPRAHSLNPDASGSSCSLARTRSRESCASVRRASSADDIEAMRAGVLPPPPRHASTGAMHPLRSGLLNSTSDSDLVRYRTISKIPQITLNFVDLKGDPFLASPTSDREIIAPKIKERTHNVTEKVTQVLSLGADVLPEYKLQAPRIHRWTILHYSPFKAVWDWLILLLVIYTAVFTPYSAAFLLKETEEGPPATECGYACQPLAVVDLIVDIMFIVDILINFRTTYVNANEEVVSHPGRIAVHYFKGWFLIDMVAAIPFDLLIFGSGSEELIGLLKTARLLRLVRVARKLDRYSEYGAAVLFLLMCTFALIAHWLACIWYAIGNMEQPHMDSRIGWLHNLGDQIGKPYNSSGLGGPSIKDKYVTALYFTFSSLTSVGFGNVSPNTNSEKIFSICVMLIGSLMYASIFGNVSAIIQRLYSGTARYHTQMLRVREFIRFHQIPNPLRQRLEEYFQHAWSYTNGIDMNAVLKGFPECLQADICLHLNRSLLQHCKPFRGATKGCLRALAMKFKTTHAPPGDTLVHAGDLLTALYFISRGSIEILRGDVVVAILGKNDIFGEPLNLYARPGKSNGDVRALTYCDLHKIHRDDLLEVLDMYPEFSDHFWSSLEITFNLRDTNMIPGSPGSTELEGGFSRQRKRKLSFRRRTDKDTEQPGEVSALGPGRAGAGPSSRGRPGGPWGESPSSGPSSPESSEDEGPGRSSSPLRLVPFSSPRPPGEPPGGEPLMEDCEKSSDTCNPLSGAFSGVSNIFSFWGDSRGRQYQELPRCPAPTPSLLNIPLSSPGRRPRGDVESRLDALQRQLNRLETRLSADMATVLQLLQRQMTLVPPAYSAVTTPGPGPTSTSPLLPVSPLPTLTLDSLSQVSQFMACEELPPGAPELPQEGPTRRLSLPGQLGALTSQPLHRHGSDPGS

Which IC50 does the source give for `O=C(N[C@H]1CCc2cc(CNC3CCCCC3)ccc2C1)c1ccc(OC[C@@H]2CCCO2)cc1` [Example 3-6] here?
The IC50 was > 10000 nM.

System: not listed separately
Experiment: physchem
Format: physicochemical
Details: pH 7.4, aqueous buffer, kinetic from dmso stock
Description: A DMSO solution of the test compound (2.5 mM; 0.5 μl) is pipetted into 200 μl of an aqueous test solution (e.g. phosphate-buffered saline, 10×, 1M, Sigma, adjusted to 10 mM, pH 7.4) in a 96-well microtiter plate, and the turbidity is measured at the resulting theoretical concentration for the test compound of 6.25 μM using a nephelometer (e.g. Nephelostar Galaxy, BMG Labtech). The concentration of the test compound in the aqueous test solution is then raised to a theoretical 12.5 μM by adding further DMSO solution (2.5 mM; 0.5 μl), and the turbidity measurement is repeated. Further additions of DMSO solutions (1 μl, 2.5 mM; 0.5 μl, 10 mM; then 9×1 μl, 10 mM resulting in theoretical concentrations of 25 μM, 50 μM, 100 μM, 150 μM, 200 μM, 250 μM, 300 μM, 350 μM, 400 μM, 450 μM and 500 μM) with turbidity measurement in between complete the measurement process.
Evaluation: The turbidity values from the nephelometer are plotted against the theoretical concentration of the test compound in the aqueous test solution. As soon as a significant turbidity is detected (e.g. 5 times above the control value of the aqueous test solution) at a theoretical concentration, the level of concentration below this is stated to be the solubility limit of the test compound in the test solution. Thus, the maximum possible measurement range emerges as values <6.25 μM, 6.25−500 μM and >500 μM.

With `O=C(N[C@H]1CCc2cc(CNC3CCCCC3)ccc2C1)c1ccc(OC[C@@H]2CCCO2)cc1` [Example 3-6] as the compound, how does the solubility kinetic read?
The solubility kinetic was > 500 µM.
